Test results as given in US11142531B2, “Cyano substituted heteroarylpyrimidinone derivative, preparation method and use thereof” (ZHEJIANG HISUN PHARMACEUTICAL CO., LTD., priority 2017, dated 2021).

Legend:
[1] = biological target: recombinant human ACC1 (Homo sapiens (Human), UniProt Q13085); experiment: Inhibition of enzymatic activity of ACC1 (ADP-Glo chemiluminescence); type: biochemical; settings: recombinant human ACC1 protein 2 nM, ATP 20 μM, acetyl-CoA 10 μM, NaHCO3 30 mM
Method: (§1) The degree of inhibition of the enzymatic activity of recombinant human ACC1, ACC2 proteins under in-vitro conditions by the preferred compounds of the present disclosure is determined by the following method.
The principle of the method was based on the reaction of ACC protein-catalyzed acetyl-CoA to form malonyl-CoA. ATP was consumed during this reaction and ADP was produced. The produced ADP was reconverted into ATP by using ADP-Glo™ Kinase Kit from Promega. This part of ATP reacted with the luciferase-fluorescence in the kit, and generated chemiluminescent signals. Thus, by measuring the intensity of chemiluminescent signal, the amount of ADP produced in the catalytic reaction was reflected, thereby indirectly determining the enzymatic activity of ACC protein and the effect of the tested compound on the enzymatic activity. The main reagents used included ACC1, ACC2 proteins (purchased from BPS bioscience, ACC1 Art. No. 50200, ACC2 Art. No. 50201), acetyl-CoA (acetyl-CoA, purchased from Sigma, Art. No. A2056), NaHCO3 (purchased from Sigma, Art. No. S6014), ADP-Glo™ Kinase assay kit (purchased from Promega, Art. No. V9102).
The test procedure was briefly described as follows: firstly, a 1× buffer solution required for the reaction was prepared, comprising: 50 mM HEPES (pH7.4 purchased from Invitrogen, Art. No. 15630), 2 mM magnesium chloride (MgCl2, purchased from Sigma, Art. No. M1028), 2 mM potassium citrate (Potassium citrate, purchased from Sigma, Art. No. 89306), 0.01% Brij-35 detergent (purchased from Merck, Art. No. 203728), 2 mM DTT (purchased from Sigma, Art. No. D0632). The test compound powder was dissolved in DMSO to prepare a stock solution having a concentration of 10 mM, followed by three-fold dilution to prepare the concentration required for the test, and each compound was set at 10 concentration points ranging from 10 μm to 0.5 nM. Firstly, appropriate amount of ACC protein (2 nM) was added to a 384-well microplate, and then diluted test compound solutions were added to each well. A duplicate well was provided at each concentration, and a solution control group (blank group) and a negative control group (DMSO group) were set at the same time. The 384-well plates were then shaken on a microwell plate oscillator and incubated for 15 minutes at room temperature. Thereafter, a substrate mixture containing ATP, acetyl-CoA and NaHCO3 which was diluted with the aforementioned buffer solution was added to each well to start the reaction, and the final concentrations of the three components were respectively ATP 20 μM, acetyl-CoA 10 μM, and NaHCO3 30 mM. After reacting for 30 minutes at room temperature, the corresponding reaction solution and detection solution were added to each well according to the method in the specification of ADP-Glo™ Kinase assay kit (referring to the specification of the kit for specific methods). Finally, the relative light unit (RLU) values of each well were tested using an Envision 2104 multi-function microplate reader (Perkin Elmer). The percentage inhibition rate of a compound at a concentration on ACC enzyme activity was calculated by the following formula: Inhibition rate %=[(RLU average value of negative control wells−RLU average value of blank control wells)−(RLU average values of test wells−RLU average values of blank control wells)]/(RLU average values of negative control wells−RLU average values of blank control wells)*100
Finally, nonlinear regression analysis of the logarithm of the concentration of the compound and the percentage inhibition rate of the corresponding concentration was carried out in the GraphPad Prism5 software to obtain the half maximal inhibitory concentration (IC50) of the compound.

[2] = biological target: recombinant human ACC2 (Homo sapiens (Human), UniProt O00763); experiment: Inhibition of enzymatic activity of ACC2 (ADP-Glo chemiluminescence); type: biochemical; settings: recombinant human ACC2 protein 2 nM, ATP 20 μM, acetyl-CoA 10 μM, NaHCO3 30 mM
Chain of recombinant human ACC2 (O00763 whole entry): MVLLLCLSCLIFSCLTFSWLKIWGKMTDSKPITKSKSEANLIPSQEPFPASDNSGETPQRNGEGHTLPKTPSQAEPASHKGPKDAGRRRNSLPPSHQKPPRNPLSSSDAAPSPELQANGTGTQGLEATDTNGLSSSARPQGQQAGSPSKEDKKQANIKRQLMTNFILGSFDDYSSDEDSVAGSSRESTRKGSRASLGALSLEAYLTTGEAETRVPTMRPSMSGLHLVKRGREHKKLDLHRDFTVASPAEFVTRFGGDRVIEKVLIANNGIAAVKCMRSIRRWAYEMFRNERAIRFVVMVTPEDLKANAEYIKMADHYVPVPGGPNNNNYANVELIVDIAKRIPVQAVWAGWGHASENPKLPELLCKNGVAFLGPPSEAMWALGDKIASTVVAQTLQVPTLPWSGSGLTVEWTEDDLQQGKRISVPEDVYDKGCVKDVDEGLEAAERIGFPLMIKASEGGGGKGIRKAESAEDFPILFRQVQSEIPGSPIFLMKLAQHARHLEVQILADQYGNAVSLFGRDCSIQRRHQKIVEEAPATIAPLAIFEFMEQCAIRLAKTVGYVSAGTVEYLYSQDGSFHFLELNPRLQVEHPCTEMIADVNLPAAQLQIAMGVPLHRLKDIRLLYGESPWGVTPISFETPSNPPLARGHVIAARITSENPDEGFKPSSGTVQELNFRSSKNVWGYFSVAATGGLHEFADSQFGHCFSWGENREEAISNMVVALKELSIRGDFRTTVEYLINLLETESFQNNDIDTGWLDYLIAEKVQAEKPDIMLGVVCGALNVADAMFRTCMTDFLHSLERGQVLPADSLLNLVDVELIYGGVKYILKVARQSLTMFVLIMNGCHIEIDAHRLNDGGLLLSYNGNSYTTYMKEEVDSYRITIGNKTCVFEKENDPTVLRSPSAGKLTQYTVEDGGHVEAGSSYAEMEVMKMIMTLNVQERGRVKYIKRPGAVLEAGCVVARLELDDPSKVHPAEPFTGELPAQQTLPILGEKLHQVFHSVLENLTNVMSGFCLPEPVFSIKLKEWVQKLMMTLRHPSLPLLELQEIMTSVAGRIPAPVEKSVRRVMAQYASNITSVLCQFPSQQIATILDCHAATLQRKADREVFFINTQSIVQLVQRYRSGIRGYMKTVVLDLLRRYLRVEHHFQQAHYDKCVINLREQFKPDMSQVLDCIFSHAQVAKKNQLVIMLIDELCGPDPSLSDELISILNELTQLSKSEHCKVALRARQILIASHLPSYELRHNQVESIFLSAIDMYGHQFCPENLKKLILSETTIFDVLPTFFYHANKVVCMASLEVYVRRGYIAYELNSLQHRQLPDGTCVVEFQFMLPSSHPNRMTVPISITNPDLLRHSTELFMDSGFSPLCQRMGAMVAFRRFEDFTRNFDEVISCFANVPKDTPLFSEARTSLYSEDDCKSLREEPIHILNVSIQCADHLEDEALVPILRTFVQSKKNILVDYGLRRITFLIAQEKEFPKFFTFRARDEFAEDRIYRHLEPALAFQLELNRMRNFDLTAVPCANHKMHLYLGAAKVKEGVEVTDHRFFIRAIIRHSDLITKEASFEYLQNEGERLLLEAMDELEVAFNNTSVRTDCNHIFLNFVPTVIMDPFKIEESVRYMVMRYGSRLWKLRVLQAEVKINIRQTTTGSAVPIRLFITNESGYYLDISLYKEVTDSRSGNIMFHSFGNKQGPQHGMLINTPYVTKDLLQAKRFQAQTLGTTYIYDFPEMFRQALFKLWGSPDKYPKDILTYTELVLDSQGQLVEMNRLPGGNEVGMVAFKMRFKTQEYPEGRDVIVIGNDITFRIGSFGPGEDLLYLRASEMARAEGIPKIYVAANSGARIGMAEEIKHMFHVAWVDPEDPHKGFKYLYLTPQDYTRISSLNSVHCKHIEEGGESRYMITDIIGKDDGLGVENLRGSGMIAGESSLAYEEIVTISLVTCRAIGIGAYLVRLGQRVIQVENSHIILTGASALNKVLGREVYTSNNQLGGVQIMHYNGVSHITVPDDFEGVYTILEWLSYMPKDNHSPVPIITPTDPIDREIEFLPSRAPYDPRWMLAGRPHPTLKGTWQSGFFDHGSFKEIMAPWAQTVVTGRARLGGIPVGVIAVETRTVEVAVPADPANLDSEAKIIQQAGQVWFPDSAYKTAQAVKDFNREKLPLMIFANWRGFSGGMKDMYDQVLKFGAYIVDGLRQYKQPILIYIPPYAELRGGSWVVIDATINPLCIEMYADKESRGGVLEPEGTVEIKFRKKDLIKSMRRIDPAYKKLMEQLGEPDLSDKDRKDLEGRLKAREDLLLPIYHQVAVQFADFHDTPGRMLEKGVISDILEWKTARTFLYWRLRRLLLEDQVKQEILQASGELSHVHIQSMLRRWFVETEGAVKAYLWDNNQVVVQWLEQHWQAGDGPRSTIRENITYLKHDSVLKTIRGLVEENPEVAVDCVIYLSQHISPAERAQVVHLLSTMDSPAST
Method: as §1
The principle of the method was based on the reaction of ACC protein-catalyzed acetyl-CoA to form malonyl-CoA. ATP was consumed during this reaction and ADP was produced. The produced ADP was reconverted into ATP by using ADP-Glo™ Kinase Kit from Promega. This part of ATP reacted with the luciferase-fluorescence in the kit, and generated chemiluminescent signals. […]
The test procedure was briefly described as follows: firstly, a 1× buffer solution required for the reaction was prepared, comprising: 50 mM HEPES (pH7.4 purchased from Invitrogen, Art. No. 15630), 2 mM magnesium chloride (MgCl2, purchased from Sigma, Art. No. M1028), 2 mM potassium citrate (Potassium citrate, purchased from Sigma, Art. No. 89306), 0.01% Brij-35 detergent (purchased from Merck, Art. No. 203728), 2 mM DTT (purchased from Sigma, Art. No. D0632). […] Finally, the relative light unit (RLU) values of each well were tested using an Envision 2104 multi-function microplate reader (Perkin Elmer). […]

[3] = Oral pharmacokinetic research in SD rats (plasma and liver, LC/MS/MS); type: in vivo; settings: male, Sprague-Dawley (SD), rat, intragastric, 10 mg/kg
Method: SD rat was used as the experimental animal. The drug concentrations in plasma and liver at different times were tested after the rats were intragastrically administered with the compound of Example 19 by LC/MS/MS methods, so as to research the pharmacokinetic characteristics of compound of present disclosure in rats.
An appropriate amount of experimental drug was weighed, and 0.5% sodium carboxymethylcellulose (CMC-Na) was added, and the mixture was milled to prepare a 1 mg/mL suspension;
6 healthy adult male rats were divided into 2 groups, fasted overnight and respectively intragastrically administered with the drug at a dosage of 10 mg/kg, at a volume of 10 mL/kg. The rats were feed 2 h after the administration.
Blood was collected by jugular vein puncture, and about 0.25 mL was collected for each sample, which was anticoagulated by using heparin sodium, and the samples were placed on ice after collection. The time points of blood collection were as follows:
The first group of animals: blood collection time: before administration, and 0.083 h, 0.25 h, 0.5 h, 1 h, 2 h, 4 h, 6 h, 8 h and 24 h after administration.
The second group of animals: the animals were euthanized 0.5 h after administration, and the liver tissues were collected, 3 rats/time point.
Blood samples were collected and placed on ice, and plasma was separated by centrifugation (centrifugation conditions: 8000 rpm, 6 min, 2-8° C.). The collected plasma was stored at −80° C. before analysis.
The content of the test compound in the plasma and liver of the rats after intragastrically administration was analyzed by LC-MS/MS.

Compound | IC50 [1] | further results
COc1ccccc1C(Cn1c(=O)n(C(C)(C)C(=O)O)c(=O)c2c(C)c(C#N)sc21)OC1CCOCC1 (stereo not shown) [Example 1, 2-(6-Cyano-1-(2-(2-methoxyphenyl)-2-((tetrahydro-2H-pyran-4-yl)oxy)ethyl)-5-methyl-2,4-dioxo-1,2-dihydrothiopheno[2,3-d]pyrimidin-3(4H)-yl)-2-methylpropionic acid] | 38 nM | –
Cc1c(C#N)sc2c1c(=O)n(C(C)(C)C(=O)O)c(=O)n2CC(OC1CCOCC1)c1ccccc1OCC1CC1 (stereo not shown) [Example 13, 2-(6-Cyano-1-(2-(2-(cyclopropylmethoxy)phenyl)-2-((tetrahydro-2H-pyran-4-yl)oxy)ethyl)-5-methyl-2,4-dioxo-1,2-dihydrothiopheno[2,3-d]pyrimidin-3(4H)-yl)-2-methylpropionic acid] | 36 nM | –
CCOc1ccc(F)cc1C(Cn1c(=O)n(C(C)(C)C(=O)O)c(=O)c2c(C)c(C#N)sc21)OC1CCOCC1 (stereo not shown) [Example 15, 2-(6-Cyano-1-(2-(2-ethoxy-5-fluorophenyl)-2-((tetrahydro-2H-pyran-4-yl)oxy)ethyl)-5-methyl-2,4-dioxo-1,2-dihydrothiopheno[2,3-d]pyrimidin-3(4H)-yl)-2-methylpropionic acid] | 4.4 nM | –
COc1ccc(F)cc1[C@H](Cn1c(=O)n(C(C)(C)C(=O)O)c(=O)c2c(C)c(C#N)sc21)OC1CCOCC1 [Example 11, (R)-2-(6-Cyano-1-(2-(5-fluoro-2-methoxyphenyl)-2-((tetrahydro-2H-pyran-4-yl)oxy)ethyl)-5-methyl-2,4-dioxo-1,2-dihydrothiopheno[2,3-d]pyrimidin-3(4H)-yl)-2-methylpropionic acid] | 15 nM | –
CCOc1ccccc1C(Cn1c(=O)n(C(C)(C)C(=O)O)c(=O)c2c(C)c(C#N)sc21)OC1CCOCC1 (stereo not shown) [Example 6, 2-(6-Cyano-1-(2-(2-ethoxyphenyl)-2-((tetrahydro-2H-pyran-4-yl)oxy)ethyl)-5-methyl-2,4-dioxo-1,2-dihydrothiopheno[2,3-d]pyrimidin-3(4H)-yl)-2-methylpropionic acid] | 21 nM | –
Cc1c(C#N)sc2c1c(=O)n(C(C)(C)C(=O)O)c(=O)n2C[C@H](OC1CCOCC1)c1cc(F)ccc1OCCF [Example 21, (R)-2-(6-cyano-1-(2-(5-fluoro-2-(2-fluoroethoxy)phenyl)-2-((tetrahydro-2H-pyran-4-yl)oxy)ethyl)-5-methyl-2,4-dioxo-1,2-dihydrothiopheno[2,3-d]pyrimidin-3(4H)-yl)-2-methylpropionic acid] | 6.4 nM | IC50 [2]: 22 nM
COc1ccccc1[C@H](Cn1c(=O)n(C(C)(C)C(=O)O)c(=O)c2c(C)c(C#N)sc21)OC1CCOCC1 [Example 3, (R)-2-(6-cyano-1-(2-(2-methoxyphenyl)-2-((tetrahydro-2H-pyran-4-yl)oxy)ethyl)-5-methyl-2,4-dioxo-1,2-dihydrothiopheno[2,3-d]pyrimidin-3(4H)-yl)-2-methylpropionic acid] | 11.6 nM | –
CCOc1ccc(F)cc1[C@H](Cn1c(=O)n(C(C)(C)C(=O)O)c(=O)c2c(C)c(C#N)sc21)OC1CCOCC1 [Example 19, (R)-2-(6-cyano-1-(2-(2-ethoxy-5-fluorophenyl)-2-((tetrahydro-2H-pyran-4-yl)oxy)ethyl)-5-methyl-2,4-dioxo-1,2-dihydrothiopheno[2,3-d]pyrimidin-3(4H)-yl)-2-methylpropionic acid] | 2.7 nM | IC50 [2]: 6 nM; concentration at 0.5 h ([3]; oral, liver, 0.5 h after administration, read-out: drug concentration in the liver): 46800 ± 14000 ng/mL; Cmax ([3]; po, plasma, read-out: Blood concentration Cmax): 920 ± 362 ng/mL; AUC(0-inf) ([3]; po, plasma, read-out: Curve area AUC0-∞): 1940 ± 1190 ng·h/mL; half-life ([3]; po, plasma, read-out: Half-life period T½ (converted)): 3.39 ± 0.65 h; MRT ([3]; po, plasma, read-out: Residence time MRT): 2.82 ± 0.34 h
COc1ccc(F)cc1C(Cn1c(=O)n(C(C)(C)C(=O)O)c(=O)c2c(C)c(C#N)sc21)OC1CCOCC1 (stereo not shown) [Example 4, 2-(6-Cyano-1-(2-(5-fluoro-2-methoxyphenyl)-2-((tetrahydro-2H-pyran-4-yl)oxy)ethyl)-5-methyl-2,4-dioxo-1,2-dihydrothiopheno[2,3-d]pyrimidin-3(4H)-yl)-2-methylpropionic acid] | 16.5 nM | –
COc1ccccc1[C@@H](Cn1c(=O)n(C(C)(C)C(=O)O)c(=O)c2c(C)c(C#N)sc21)OC1CCOCC1 [Example 2, (S)-2-(6-Cyano-1-(2-(2-methoxyphenyl)-2-((tetrahydro-2H-pyran-4-yl)oxy)ethyl)-5-methyl-2,4-dioxo-1,2-dihydrothiopheno[2,3-d]pyrimidin-3(4H)-yl)-2-methylpropionic acid] | 16 nM | –
Cc1c(C#N)sc2c1c(=O)n(C(C)(C)C(=O)O)c(=O)n2CC(OC1CCOCC1)c1cc(F)ccc1OCC#N (stereo not shown) [Example 17, 2-(6-Cyano-1-(2-(2-(cyanomethoxy)-5-fluorophenyl)-2-((tetrahydro-2H-pyran-4-yl)oxy)ethyl)-5-methyl-2,4-dioxo-1,2-dihydrothiopheno[2,3-d]pyrimidin-3(4H)-yl)-2-methylpropionic acid] | 20.7 nM | –
Cc1c(C#N)sc2c1c(=O)n(C(C)(C)C(=O)O)c(=O)n2CC(OC1CCOCC1)c1cc(F)ccc1OCCF (stereo not shown) [Example 14, 2-(6-Cyano-1-(2-(5-fluoro-2-(2-fluoroethoxy)phenyl)-2-((tetrahydro-2H-pyran-4-yl)oxy)ethyl)-5-methyl-2,4-dioxo-1,2-dihydrothiopheno[2,3-d]pyrimidin-3(4H)-yl)-2-methylpropionic acid] | 7.9 nM | –
